This is an account of results in patent publication US7041869B2, “Transgenic luciferase mouse” (Sloan-Kettering Institute for Cancer Research, priority 2002, dated 2006).

The test system of one assay is PDGF-driven gliomas. Kind of assay: Elux bioluminescence imaging of PDGF-induced gliomas during treatment. It counts as in vivo, mice.
Assay [1] has as its system PDGF signaling in glial cell culture. Conditions: previously demonstrated; cited from earlier work.

SMILES strings stand for the structures. Entries after “also recorded” stand apart in the source; their conditions may differ.

Protocol for PDGF-driven gliomas: As an illustration of the use of Elux in somatic cell gene transfer models, the inventors have generated gliomas in mice harboring the Elux transgene. The Elux transgenic line was crossed with the Ntv-a transgenic mouse line. These doubly transgenic mice were then infected at birth with RCAS-PDGF. The mice were injected intracranially with one microliter containing 10^4 DF-1 cells, a chicken fibroblast cell line that are infected with and producing the RCAS-PDGF virus. This vector encodes the PDGF B coding region downstream of the env gene and expressed from the LTR on a message that splices out the viral genes. The injection passed through the striatum, just anterior to the ventricle, until the tip of the needle just touches the skull base. The producer cells survived for only a few days within the parenchyma of the mouse brain and during this time they produced virus and infected adjacent cells expressing the receptor for RCAS, tv-a. The mice were then observed for the development of signs of intracranial pathology including weight loss, lethargy, and macrocephaly. These mice were analyzed for expression of luciferase by i.v. injection with luciferin and imaging for bioluminescence with a CCD camera as discussed in detail below.
Animals were weighed prior to the acquisition session for proper dosage calculations. […] The solution was sterilized by filtration through 0.22 μm syringe filter. Individual dosages were drawn into sterile insulin syringes for each animal based on the body weight. Prior to the injection, individual syringes were kept in dark.
Oxygen flow was turned on and set for 1 l/min flow. […] For the induction of anesthesia, the animal was placed into the induction chamber and general activity and respiration rate were monitored. […]
Bioluminescent acquisition was performed according to the IVIS™ Imaging System (Xenogen). […] It was selected empirically, based on prior in vitro characterization of luminescence of transfected cells and the intensity of luminescence signal obtained from the current study. […]

Turning to `Clc1ccc(Nc2nnc(Cc3ccncc3)c3ccccc23)cc1` [PTK787], in the assay with PDGF-driven gliomas (Ntv-a/Elux bitransgenic mice with RCAS-PDGF gliomas, 25 mg/kg i.p. daily, in 24–36 hours), the “loss in light emission (bioluminescence)” value is listed as 50%. Also, in the assay on PDGF-driven gliomas (four consecutive mice with PDGF-induced gliomas, bioluminescence quantified daily during treatment), the “relative falloff of light production across tumors of various light outputs” value was “essentially parallel responses of decreases in light emission over time; also recorded: proportionally similar”. The “effect on PDGF signaling in glial cell culture” value in assay [1] was “capable of reversing the effects of PDGF signaling”.
